The target of test [1] is T1, Full length DGKζ (in-house protein M1-V929) (Homo sapiens, UniProt Q13574).
T1 construct: His (N); TEV site (N); made in house; host or cells: Sf9 insect cells (Bac-to-Bac baculovirus)
In words: Biochemical DGK IC50 assay (ADP-Glo, lipid micelle substrate), DGKζ. Conditions: 1 hour preincubation, 1 hour reaction, room temperature. The gist of the method: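 Enzyme: full-length human DGKζ M1-V929, produced in baculovirus-infected Sf9 cells; substrate DAG/PS micelles. Buffer 50 mM HEPES, 10 mM MgCl2, 0.01 mM CaCl2, 0.1 mM Na3VO4.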

Test [2] concerns the target T2, Full length DGKα (D21-10BG, SignalChem) (Homo sapiens, UniProt P23743).
T2 construct: Full length DGKα (D21-10BG, SignalChem); purchased SignalChem D21-10BG
In words: Biochemical DGK IC50 assay (ADP-Glo, lipid micelle substrate), DGKα. The note with it: 1 hour preincubation, 1 hour reaction, room temperature. The method, boiled down:
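ADP-Glo luminescence quantified ADP produced after a 1 h room-temperature reaction of full-length DGKα on DAG/PS micelles, in HEPES buffer containing MgCl2, CaCl2, vanadate, BSA and Tween-20. IC50 values derive from activity inhibition over a compound concentration series.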

T1 sequence (Q13574 1-929 isoform Q13574-4): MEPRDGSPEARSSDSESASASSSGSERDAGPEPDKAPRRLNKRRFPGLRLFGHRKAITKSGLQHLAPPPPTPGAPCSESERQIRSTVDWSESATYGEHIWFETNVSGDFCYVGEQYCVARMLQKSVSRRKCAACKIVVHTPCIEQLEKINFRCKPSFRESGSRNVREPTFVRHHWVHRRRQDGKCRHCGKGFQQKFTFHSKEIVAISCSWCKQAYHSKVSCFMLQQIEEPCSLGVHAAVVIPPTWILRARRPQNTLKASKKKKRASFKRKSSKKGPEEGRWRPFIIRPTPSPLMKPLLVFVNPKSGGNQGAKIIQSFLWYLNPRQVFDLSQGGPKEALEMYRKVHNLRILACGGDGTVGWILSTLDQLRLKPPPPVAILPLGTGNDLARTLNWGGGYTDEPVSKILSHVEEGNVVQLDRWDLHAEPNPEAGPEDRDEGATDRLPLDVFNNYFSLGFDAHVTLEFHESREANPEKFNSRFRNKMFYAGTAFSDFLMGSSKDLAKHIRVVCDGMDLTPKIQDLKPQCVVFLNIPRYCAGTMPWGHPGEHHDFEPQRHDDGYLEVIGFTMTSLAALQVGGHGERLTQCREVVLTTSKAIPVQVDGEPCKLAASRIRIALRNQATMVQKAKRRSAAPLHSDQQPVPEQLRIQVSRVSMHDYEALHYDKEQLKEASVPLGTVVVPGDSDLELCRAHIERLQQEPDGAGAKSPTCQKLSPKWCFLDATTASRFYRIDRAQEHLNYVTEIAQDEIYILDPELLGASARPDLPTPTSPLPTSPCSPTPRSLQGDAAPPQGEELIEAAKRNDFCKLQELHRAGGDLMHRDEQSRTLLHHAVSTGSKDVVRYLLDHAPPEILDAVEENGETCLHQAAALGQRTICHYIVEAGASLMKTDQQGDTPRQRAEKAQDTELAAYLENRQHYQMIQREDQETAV
T2 sequence (P23743 whole entry): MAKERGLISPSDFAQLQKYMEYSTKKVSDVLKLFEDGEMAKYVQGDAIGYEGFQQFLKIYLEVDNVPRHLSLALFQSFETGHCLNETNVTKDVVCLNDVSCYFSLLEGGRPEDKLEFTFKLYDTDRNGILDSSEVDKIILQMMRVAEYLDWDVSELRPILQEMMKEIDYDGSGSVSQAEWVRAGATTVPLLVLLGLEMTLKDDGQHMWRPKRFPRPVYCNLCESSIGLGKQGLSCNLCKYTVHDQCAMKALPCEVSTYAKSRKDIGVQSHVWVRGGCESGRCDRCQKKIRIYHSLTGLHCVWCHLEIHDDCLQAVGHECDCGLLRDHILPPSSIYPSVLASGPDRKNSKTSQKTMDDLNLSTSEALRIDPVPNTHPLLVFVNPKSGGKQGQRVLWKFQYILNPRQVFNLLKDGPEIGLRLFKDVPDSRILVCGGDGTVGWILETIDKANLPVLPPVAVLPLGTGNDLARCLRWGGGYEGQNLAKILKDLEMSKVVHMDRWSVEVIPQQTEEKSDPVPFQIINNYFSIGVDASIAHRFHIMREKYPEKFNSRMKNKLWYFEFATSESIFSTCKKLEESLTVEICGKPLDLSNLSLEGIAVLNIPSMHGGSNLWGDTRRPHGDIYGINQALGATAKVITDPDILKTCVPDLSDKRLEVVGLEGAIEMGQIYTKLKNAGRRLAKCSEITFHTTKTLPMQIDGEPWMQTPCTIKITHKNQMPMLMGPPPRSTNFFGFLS

For `CCn1c(CC#N)nc2c(N3C[C@@H](C)N(C(C)c4cccc(C5COC5)c4)C[C@@H]3C)nc(=O)n(C)c21` (stereo partly drawn) [Compound A127, 2-(6-((2S,5R)-2,5-dimethyl-4-(1-(3-(oxetan-3-yl)phenyl)ethyl)piperazin-1-yl)-9-ethyl-3-methyl-2-oxo-3,9-dihydro-2H-purin-8-yl)acetonitrile], the results for the half-maximal inhibitory concentration (IC50) in test [1] and in test [2] were 428 nM and more than 150000 nM, respectively.
The corresponding values for `CCn1c(CC#N)nc2c(N3C[C@@H](C)N(C(C)c4cccc5c4OC(C)(C)O5)C[C@@H]3C)nc(=O)n(C)c21` (stereo partly drawn) [Compound A186, 2-(6-((2S,5R)-4-(1-(2,2-dimethylbenzo[d][1,3]dioxol-4-yl)ethyl)-2,5-dimethylpiperazin-1-yl)-9-ethyl-3-methyl-2-oxo-3,9-dihydro-2H-purin-8-yl)acetonitrile] are 156 nM and 143000 nM.
The like results for `CC(c1cc(F)c2c(c1)OC(C)(C)CO2)N1C[C@H](C)N(c2nc(=O)n(C)c3c2nc(CC#N)n3C)C[C@H]1C` (mixture of isomers) [Compound A68, 2-(6-((2S,5R)-4-(1-(8-fluoro-3,3-dimethyl-2,3-dihydrobenzo[b][1,4]dioxin-6-yl)ethyl)-2,5-dimethylpiperazin-1-yl)-3,9-dimethyl-2-oxo-3,9-dihydro-2H-purin-8-yl)acetonitrile] were, in that order, 7 nM and 43800 nM.
Take `CCn1c(CC#N)nc2c(N3C[C@@H](C)N(C(C)c4cccc(C(C)(C)CO)c4)C[C@@H]3C)nc(=O)n(C)c21` (stereo partly drawn) [Compound A133, 2-(9-ethyl-6-((2S,5R)-4-(1-(3-(1-hydroxy-2-methylpropan-2-yl)phenyl)ethyl)-2,5-dimethylpiperazin-1-yl)-3-methyl-2-oxo-3,9-dihydro-2H-purin-8-yl)acetonitrile]: the results for the IC50 in test [1] and in test [2] were 111 nM and more than 150000 nM, respectively.
The like results for `CC#CCc1nc2c(N3C[C@@H](CC)N(C(C)c4ccc(C(F)(F)F)cc4)C[C@@H]3CC)nc(=O)n(C)c2n1C` (stereo partly drawn) [Compound A152, 8-(but-2-yn-1-yl)-6-((2S,5R)-2,5-diethyl-4-(1-(4-(trifluoromethyl)phenyl)ethyl)piperazin-1-yl)-3,9-dimethyl-3,9-dihydro-2H-purin-2-one] were, in that order, 707 nM and 2690 nM.
The corresponding values for `Cc1cnc2ccc(C(C)N3C[C@H](C)N(c4nc(=O)n(C)c5c4nc(CC#N)n5C)C[C@H]3C)cc2n1` (single isomer, unassigned) [Compound A49a] are 6 nM and 77900 nM.
The like results for `CCn1c(CC#N)nc2c(N3C[C@@H](C)N(C(C)c4cc(F)c5c(n4)OC(C)(C)CO5)C[C@@H]3C)nc(=O)n(C)c21` (mixture of isomers) [Compound A163, 2-(9-ethyl-6-((2S,5R)-4-(1-(8-fluoro-3,3-dimethyl-2,3-dihydro-[1,4]dioxino[2,3-b]pyridin-6-yl)ethyl)-2,5-dimethylpiperazin-1-yl)-3-methyl-2-oxo-3,9-dihydro-2H-purin-8-yl)acetonitrile] were, in that order, 48 nM and more than 150000 nM.
Regarding `CCn1c(CC#N)nc2c(N3C[C@@H](C)N(C(C)c4ccc5c(n4)OC(C)(C)CO5)C[C@@H]3C)nc(=O)n(C)c21` (single isomer, unassigned) [Compound A74a], the IC50 was 46 nM in test [1] and more than 150000 nM in test [2].
The corresponding values for `CCn1c(CC#N)nc2c(N3C[C@@H](C)N(C(C)c4ccc5c(c4)OC(C)(C)CO5)C[C@@H]3C)c(F)c(=O)n(C)c21` (stereo partly drawn) [Compound A20, 2-(7-((2S,5R)-4-(1-(3,3-dimethyl-2,3-dihydrobenzo[b][1,4]dioxin-6-yl)ethyl)-2,5-dimethylpiperazin-1-yl)-3-ethyl-6-fluoro-4-methyl-5-oxo-4,5-dihydro-3H-imidazo[4,5-b]pyridin-2-yl)acetonitrile] are 5 nM and 93000 nM.

Values taken from patent publication US20260125378A2, “Heterocyclic Compounds” (BeOne Medicines I GmbH, priority 2023, published 2026).
